# Assay results from US20060276446A1, “Tricyclic 6-alkylidene-penems as class-D beta-lactamases inhibitors” (priority 2005, published 2006).
# Tested on: class-D producing organism E. coli GC 2883 (OXA-10 + PSE-2)
# Assay: Antimicrobial susceptibility testing, microbroth dilution (NCCLS): piperacillin combined with β-lactamase inhibitor
# Type: cell-based
# Details: MIC of piperacillin combined with constant 4 μg/mL of the β-lactamase inhibitor (example compound), 35° C. for 18 hours
# Method: Antimicrobial susceptibility testing. The in vitro activities of the antibiotic, piperacillin in this case, against resistant pathogens expressing class-D enzymes were determined by the microbroth dilution method as recommended by the National Committee for Clinical Laboratory Standards (NCCLS). (NCCLS. 2000. Methods for Dilution Antimicrobial Susceptibility Tests for Bacteria That Grow Aerobically; Approved Standards: M7-A5, vol. 19. National Committe for Clinical Laboratory Standards, Villanova, Pa.). Mueller-Hinton II broth (MHBII)(BBL Cockeysville, Md.), was used for the testing procedure. Microtiter plates containing 50 μl per well of two-fold serial dilutions of piperacillin combined with a constant amount (4 μg/mL) of β-lactamase inhibitor (final concentration) were inoculated with 50 μl of inoculum to yield the appropriate density (10^5 CFU/mL) in 100 μL. The plates were incubated for 18-22 hours at 35° C. in ambient air. […] Both OXA-10 and PSE-2 are class D β-lactamases. (Bush, K., Jacoby, G. A., Medeiros, A. A. Antimicrob. Agents Chemother., 1995, 39, 1211).
row,Compound,Minimal Inhibitory Concentration (MIC50)
1,O=C(O)C1=CS[C@@H]2/C(=C\c3cn4c(n3)sc3cc(F)ccc34)C(=O)N12 [Example 14],4 µg/mL
2,Cc1cccc2sc3nc(/C=C4/C(=O)N5C(C(=O)O)=CS[C@H]45)cn3c12 [Example 13],4 µg/mL
3,"O=C(O)C1=CS[C@@H]2/C(=C\c3cn4c5c(sc4n3)COCC5)C(=O)N12 [Example 15, (5R),(6Z)-6-(5,8-dihydro-6H-imidazo[2,1-b]pyrano[4,3-d][1,3]thiazol-2-ylmethylene)-7-oxo-4-thia-1-azabicyclo[3.2.0]hept-2-ene-2-carboxylic acid]",4 µg/mL
4,"O=C([O-])C1=CS[C@@H]2C(=Cc3cc4n(n3)Cc3ccccc3OC4)C(=O)N12.[Na+] [Example 11, (5R,6E&Z)-7-oxo-6-(4H,10H-pyrazolo[5,1-c][1,4]benzoxazepin-2-ylmethylene)-4-thia-1-azabicyclo[3.2.0]hept-2-ene-2-carboxylic acid, sodium salt]",4 µg/mL
5,CCOC(=O)N1CCc2c(oc3cc(/C=C4/C(=O)N5C(C(=O)[O-])=CS[C@H]45)nn23)C1.[Na+] [Example 33],8 µg/mL
6,"O=C([O-])C1=CS[C@@H]2/C(=C\c3cccc4nc5n(c34)CCS5)C(=O)N12.[Na+] [Example 28, (5R,6Z)-6-(2,3-dihydro[1,3]thiazolo[3,2-a]benzimidazol-4-ylmethylene)-7-oxo-4-thia-1-azabicyclo[3.2.0]hept-2-ene-2-carboxylic acid, sodium salt]",16 µg/mL
7,"O=C(O)C1=CS[C@@H]2/C(=C\c3cn4c(ccc5ccccc54)n3)C(=O)N12 [Example 4, (5R),(6Z)-6-Imidazo[1,2-a]quinolin-2-ylmethylene-7-oxo-4-thia-1-azabicyclo[3.2.0]hept-2-ene-2-carboxylic acid]",4 µg/mL
8,"Cn1c2ccccc2n2cc(/C=C3/C(=O)N4C(C(=O)O)=CS[C@H]34)nc12 [Example 20, (5R),(6Z)-8-[(9-methyl-9H-imidazo[1,2-a]benzimidazol-2-yl)methylene]-7-oxo-4-thia-1-azabicyclo[3.2.0]hept-2-ene-2-carboxylic acid]",64 µg/mL
9,"O=C([O-])C1=CS[C@@H]2/C(=C\c3cn4c(cnc5ccccc54)n3)C(=O)N12.[Na+] [Example 6, (5R),(6Z)-6-(Imidazo[1,2-a]quinoxaline-2-ylmethylene)-7-oxo-4-thia-1-azabicyclo[3.2.0]hepto-2-ene-2-carboxylic acid, sodium salt]",0.06 µg/mL
10,"O=C([O-])C1=CS[C@@H]2/C(=C\c3cn4c(n3)nc3n4CCCC3)C(=O)N12.[Na+] [Example 8, (5R),(6Z)-6-(4,5,6,7-tetrahydro-1,3a,3b,8-tetraaza-cyclopenta[a]indene-2-ylmethylene)-7-oxo-4-thia-1-aza-bicyclo[3.2.0]hept-2-ene-2-carboxylic acid sodium salt]",2 µg/mL
11,"O=C(O)C1=CS[C@@H]2/C(=C\c3cn4c5c(sc4n3)CCCC5)C(=O)N12 [Example 19, (5R),(6Z)-7-oxo-6-(5,6,7,8-tetrahydroimidazo[2,1-b][1,3]benzothiazol-2-ylmethylene)-4-thia-1-azabicyclo[3.2.0]hept-2-ene-2-carboxylic acid]",2 µg/mL
12,"O=C(O)C1=CS[C@@H]2/C(=C\c3ccc4c(c3)sc3nccn34)C(=O)N12 [Example 16, (5R),(6Z)-6-(imidazo[2,1-b]bebzothiazol-7-ylmethylene)-7-oxo-4-thia-1-azabicyclo[3.2.0]hept-2-ene-2-carboxylic acid]",32 µg/mL
13,"O=C(O)C1=CS[C@@H]2/C(=C\c3cn4c5c(sc4n3)CCC5)C(=O)N12 [Example 5, (5R),(6Z)-6-(6,7-dihydro-5H-cyclopenta[d]imidazo[2,1-b][1,3]thiazol-2-ylmethylene)-7-oxo-4-thia-1-azabicyclo[3.2.0]hept-2-ene-2-carboxylic acid]",2 µg/mL
14,"(5R,6Z)-7-oxo-6-(4H-thieno[2′,3′:4,5]thiopyrano[2,3-b]pyridin-2-ylmethylene)-4-thia-1-azabicyclo[3.2.0]hept-2-ene-2-carboxylic acid (Sodium salt) [Example 21]",64 µg/mL
15,"O=C(O)C1=CS[C@@H]2/C(=C\c3cn4nc5c(c4s3)CCC5)C(=O)N12 [Example 18, (5R),(6Z)-6-(7,8-dihydro-6H-cyclopenta[3.4]pyrazolo[5,1-b][1,3]thiazol-2-ylmethylene)-7-oxo-6-4-thia-1-azabicyclo[3.2.0]hept-2-ene-2-carboxylic acid]",16 µg/mL
16,"O=C(O)C1=CS[C@@H]2/C(=C\c3cn4c(nc5ccccc54)s3)C(=O)N12 [Example 17, (5R),(6Z)-7-oxo-6-([1,3]thiazolo[3,2-a]benzimidazol-2-ylmethylene)-4-thia-1-azabicyclo[3.2.0]hept-2-ene-2-carboxylic acid]",32 µg/mL
17,"O=C([O-])C1=CS[C@@H]2/C(=C\c3cn4c(n3)-c3ccccc3C4)C(=O)N12.[Na+] [Example 12, (5R),(6Z)-6-(5H-Imidazo[2,1-a]isoindol-2-ylmethylene)-7-oxo-4-thia-1-aza-bicyclo[3.2.0]hept-2-ene-2-carboxylic acid sodium salt]",16 µg/mL
18,Cc1ccc2c(c1)sc1nc(/C=C3/C(=O)N4C(C(=O)O)=CS[C@H]34)cn12 [Example 7],2 µg/mL
19,COc1ccc2c(c1)sc1nc(/C=C3/C(=O)N4C(C(=O)O)=CS[C@H]34)cn12 [Example 2],4 µg/mL
20,O=C(O)C1=CS[C@@H]2/C(=C\c3cn4c(n3)sc3cc(Cl)ccc34)C(=O)N12 [Example 3],2 µg/mL

# Tested on: not given
# Assay: not given
# Details: not given
row,Compound,melting point
1,"O=C([O-])C1=CS[C@@H]2/C(=C\c3nc4ncc5c(n4n3)CCC3(C5)OCCO3)C(=O)N12.[Na+] [Example 24, (5R,6Z)-6-(8′,9′-dihydro-6′H-spiro[1,3-dioxolane-2,7′-[1,2,4]triazolo[1,5-a]quinazolin]-2′-ylmethylene)-7-oxo-4-thia-1-azabicyclo[3.2.0]hept-2-ene-2-carboxylic acid, sodium salt]",> 250 °C (dec.)
2,"O=C([O-])C1=CS[C@@H]2/C(=C\c3ccc4nc5sccn5c4c3)C(=O)N12.[Na+] [Example 30, (5R,6Z)-7-oxo-6-([1,3]thiazolo[3,2-a]benzimidazol-6-ylmethylene)-4-thia-1-azabicyclo[3.2.0]hept-2-ene-2-carboxylic acid, sodium salt]",> 250 °C
3,"Cc1nc2nc(/C=C3/C(=O)N4C(C(=O)[O-])=CS[C@H]34)nn2c2c1CCCC2.[Na+] [Example 25, (5R,6Z)-6-[(5-methyl-6,7,8,9-tetrahydro[1,2,4]triazolo[1,5-a]quinazolin-2-yl)methylene]-7-oxo-4-thia-1-azabicyclo[3.2.0]hept-2-ene-2-carboxylic acid, sodium salt]",250 °C (dec.)
4,"O=C([O-])C1=CS[C@@H]2/C(=C\c3ccc4nc5n(c4c3)CCCS5)C(=O)N12.[Na+] [Example 29, (5R,6Z)-6-(3,4-dihydro-2H-[1,3]thiazino[3,2-a]benzimidazol-7-ylmethylene)-7-oxo-4-thia-1-azabicyclo[3.2.0]hept-2-ene-2-carboxylic acid, sodium salt]",> 250 °C
5,"O=C([O-])C1=CS[C@@H]2/C(=C\c3cn4c5c(c(OCCOCc6ccccc6)nc4n3)CCC5)C(=O)N12.[Na+] [Example 27, (5R,6Z)-6-({5-[2-(benzyloxy)ethoxy]-7,8-dihydro-6H-cyclopenta[e]imidazo[1,2-a]pyrimidin-2-yl}methylene)-7-oxo-4-thia-1-azabicyclo[3.2.0]hept-2-ene-2-carboxylic acid, sodium salt]",> 250 °C
